Measured values taken from PubChem BioAssay AID743348 (Broad Institute, 2014).
Activity calls are given as the source filed them.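 Rule for the calls: active = AC50 for ATP loss at or below twice the top valid dose tested, with the signal falling; inconclusive = flat fit showing moderate loss, or a poor-quality fit; inactive = the rest, including rises in signal.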

Columns and labels:
[1] = HepG2 cytotoxicity, dose response, cytotoxicity control, cell-based, ATP luminescence, dry powder, set 10 (AID 743348); conditions: HepG2 viability, CellTiter-Glo ATP luminescence, 72 h; at 26 µM (top of the series)
[2] = tested on: HepG2 viability, CellTiter-Glo ATP luminescence, 72 h; test: as above

O=C(c1ccc2c(c1)OCO2)N1CCN(c2ccc(OC(F)(F)F)cc2)CC1
activity change, negative = cytotoxicity [1]: -0.808% (inactive)

COc1ccc(C(=O)N2CCN(c3ccc(C(C)=O)cc3)CC2)cc1OC
activity change, negative = cytotoxicity [1]: 9.73% (inactive)

COc1cc2c(cc1C(=O)N1CCN(c3ccc(C(C)=O)cc3)CC1)OCO2
activity change, negative = cytotoxicity [1]: 7.72% (inactive)

CC(=O)c1ccc(N2CCN(S(=O)(=O)c3ccc4c(c3)OCO4)CC2)cc1
AC50 [2]: > 52 µM (inactive)

O=C(c1ccc2c(c1)OCO2)N1CCN(c2ccc(S(=O)(=O)C(F)(F)F)cc2)CC1
activity change, negative = cytotoxicity [1]: 24.8% (inactive)

CC(=O)c1ccc(N2CCN(C(=O)c3cc4c(cc3Cl)OCO4)CC2)cc1
activity change, negative = cytotoxicity [1]: 28.5% (inactive)

CC(=O)c1ccc(N2CCN(C(=O)c3ccc4ocnc4c3)CC2)cc1
activity change, negative = cytotoxicity [1]: 10.9% (inactive)

CC(=O)c1ccc(N2CCN(C(=O)c3cccc4c3OCO4)CC2)cc1
activity change, negative = cytotoxicity [1]: 14.1% (inactive)

CC(=O)c1ccc(N2CCN(C(=O)c3ccc4c(c3)OC(F)(F)O4)CC2)cc1
activity change, negative = cytotoxicity [1]: 14.2% (inactive)

CC(=O)c1ccc(N2CCN(C(=O)c3ccc4c(c3C)OCO4)CC2)cc1
activity change, negative = cytotoxicity [1]: 0.898% (inactive)

O=C(c1ccc2c(c1)OCO2)N1CCN(c2ccc(S(=O)(=O)C(F)F)cc2)CC1
activity change, negative = cytotoxicity [1]: 27.7% (inactive)

CC(=O)c1ccc(N2CCN(C(=O)c3cc4c(cn3)OCO4)CC2)cc1
activity change, negative = cytotoxicity [1]: -2.87% (inactive)

CC(=O)c1ccc(N2CCN(C(=O)c3ccc4snnc4c3)CC2)cc1
activity change, negative = cytotoxicity [1]: 19.1% (inactive)

CC(=O)c1ccc(N2CCN(C(=O)c3cc4c(cc3C)OCO4)CC2)cc1
activity change, negative = cytotoxicity [1]: 31.1% (inactive)

CC(=O)c1ccc(N2CCCN(C(=O)c3ccc4c(c3)OCO4)CC2)cc1
activity change, negative = cytotoxicity [1]: 11.7% (inactive)

CC(=O)c1ccc(N2CCN(C(=O)c3ccc(Cl)c(Cl)c3)CC2)cc1
activity change, negative = cytotoxicity [1]: 55.4% (inactive)

CC(=O)c1ccc(N2CCN(C(=O)Nc3ccc4c(c3)OCO4)CC2)cc1
activity change, negative = cytotoxicity [1]: -12% (inactive)

CS(=O)(=O)c1ccc(N2CCN(C(=O)c3ccc4c(c3)OCO4)CC2)cc1
activity change, negative = cytotoxicity [1]: -7.24% (inactive)

CC(=O)c1ccc(N2CCN(C(=O)c3ccc4c(c3)OCO4)CC2)cc1
activity change, negative = cytotoxicity [1]: -3.33% (inactive)

O=C(c1ccc2c(c1)OCO2)N1CCN(c2ccc(C(F)(F)F)cc2)CC1
activity change, negative = cytotoxicity [1]: 7.07% (inactive)

CC(=O)c1ccc(N2CCN(C(=O)c3cc(Cl)c4c(c3)OCO4)CC2)cc1
activity change, negative = cytotoxicity [1]: 6.73% (inactive)

CC(=O)c1ccc(N2CC3CC2CN3C(=O)c2ccc3c(c2)OCO3)cc1 (stereo not given)
activity change, negative = cytotoxicity [1]: 36.6% (inactive)

N#Cc1ccc(N2CCN(C(=O)c3ccc4c(c3)OCO4)CC2)cc1
activity change, negative = cytotoxicity [1]: -5.11% (inactive)

COc1cc(C(=O)N2CCN(c3ccc(C(C)=O)cc3)CC2)cc2c1OCO2
activity change, negative = cytotoxicity [1]: 12% (inactive)

CC(=O)c1ccc(N2CCN(C(=O)c3ccc4c(c3)OC(C)(C)O4)CC2)cc1
activity change, negative = cytotoxicity [1]: -6.05% (inactive)
